Measurements reported in PMC7707092, “Discovery and characterization of ORM‐11372, a novel inhibitor of the sodium‐calcium exchanger with positive inotropic activity” (British Journal of Pharmacology, 2020).
≈ marks a conversion by molar mass, not a printed value. Like-named read-outs stand apart in the source and are kept apart here.

How the values were obtained:
hERG = hERG (Homo sapiens, UniProt Q12809); experiment: hERG IC50 of Table 1 / Table S2 (method not assigned); assay type: cell-based; details: n=4 assays
MAO B = target: T1, MAO B (Homo sapiens, UniProt P27338); experiment: MAO B inhibition (Table S2); assay type: biochemical
T1 sequence (P27338 1-520): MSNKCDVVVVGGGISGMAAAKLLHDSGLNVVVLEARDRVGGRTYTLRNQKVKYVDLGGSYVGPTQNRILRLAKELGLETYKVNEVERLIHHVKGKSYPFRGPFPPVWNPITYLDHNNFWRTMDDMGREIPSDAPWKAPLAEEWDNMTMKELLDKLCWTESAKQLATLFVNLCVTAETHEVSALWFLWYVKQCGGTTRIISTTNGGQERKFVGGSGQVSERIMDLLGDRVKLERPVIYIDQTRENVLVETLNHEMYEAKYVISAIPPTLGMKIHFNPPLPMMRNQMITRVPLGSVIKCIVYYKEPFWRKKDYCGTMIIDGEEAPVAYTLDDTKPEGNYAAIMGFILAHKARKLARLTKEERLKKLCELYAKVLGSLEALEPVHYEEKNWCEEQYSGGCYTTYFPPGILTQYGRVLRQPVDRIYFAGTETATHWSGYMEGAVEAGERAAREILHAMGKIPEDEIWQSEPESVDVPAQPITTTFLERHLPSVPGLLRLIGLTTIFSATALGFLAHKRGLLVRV

hNCX1 = hNCX1 (Homo sapiens, UniProt P32418); experiment: Confirmatory fluorescence assay for hNCX1 inhibition (forward mode, HEK293 cells, Charles River); assay type: cell-based; details: HEK293, forward mode
Method: A confirmatory hNCX1 inhibition assay was performed in Charles River Laboratories, Cleveland. Briefly, HEK293 cells stably expressing hNCX1 were plated in 384‐well black wall, clear‐bottom microtitre plates and the next day loaded with Fluo‐8 for 30 min at 37°C. A plate was inserted into a FLIPR^TETRA, and a baseline was recorded during a preincubation period where test compound or vehicle in a Na^+‐free HB‐PS containing thapsigargin (6 μM) and […] (30 μM) was added to each well for ~5 min. Next, the NCX1 stimulation period was recorded in which Na^+‐containing HB‐PS (with 2‐μM thapsigargin and 10‐μM FCCP) was added. The experiments were performed at room temperature. The kinetic data generated were reduced for each well to maximum relative fluorescence units (RFU) minus minimum RFU after subtracting bias based on the first sample. The mean of the max–min RFU values during the stimulation period for the 3–4 replicates at each concentration on a plate was then plotted versus concentration and fitted to a Hill equation.

L‐type calcium channel = L‐type calcium channel inhibition, fluorescence assay in IMR‐32 cells; assay type: cell-based, human; details: KCl depolarization, n=4 assays, read-out: L‐type Ca^2+ IC50
Method: CHO cells stably expressing either hERG1a (KV11.1) channels (KCNH2; RRID:CVCL_H512) or human 5‐HT2B receptors were cultured at 37°C in a 5% CO2/95% air atmosphere in the Ham's Nutrient Mixture F‐12 (HAM F‐12) medium supplemented with 10% FBS (heat inactivated), 100 μg·ml^−1 of hygromycin B (Invitrogen), and 100 μg·ml^−1 of geneticin or 100 IU·ml^−1 of penicillin and 100 IU·ml^−1 of streptomycin, 25‐mM HEPES, 500 μg·ml^−1 of geneticin, and 250 μg·ml^−1 of Zeocin®. Adhered cells were detached using either Detachin® solution or trypsin and replated twice a week. HEK 293 (RRID:CVCL_0045) and IMR‐32 cells (CCL‐127; RRID:CVCL_0346) were cultured similarly but maintained instead in DMEM, supplemented with 10% FBS (heat inactivated), 100 IU·ml^−1 of penicillin and 100 IU·ml^−1 of streptomycin, and 25‐mM HEPES, and in the case of the IMR‐32 cell line, with minimum essential medium (MEM) non‐essential amino acids. IMR‐32 cells are derived from a human neuroblastoma and endogenously express L‐type (CaV1.x) calcium channel (Sher, Gotti, Pandiella, Madeddu, & Clementi, 1988).
Undifferentiated IMR‐32 cells were harvested, centrifuged, and resuspended in a probenecid‐Ringer solution consisting (in mM) 150 NaCl, 3 KCl, 1.2 MgCl2, 1 CaCl2, 20 HEPES, 5 glucose and 2.5 probenecid (pH 7.4 adjusted with NaOH, osmolarity 320–324 mOsm). We added 0.04% Pluronic F‐127 and Fluo‐4 to this solution, and after incubating the cells for 30 min at room temperature, these additives were removed from the probenecid‐Ringer solution by centrifugation and resuspension. The cell suspension was pipetted (250,000 cells in 75 μl per well) into a 96‐well plate, into which the test compound (75 μl per well at […] the final concentration; five concentrations with eight replicates) had already been added. The plate was centrifuged once (5 min, at 287 x g) to ensure that the cells were moved to the bottom of the wells. FLEXstation was then used to measure the increase in intracellular calcium at 37°C, following depolarization, which was induced by the addition (50 μl per well) of a KCl‐Ringer solution containing (in mM) 200 KCl, 20 CaCl2, 1.2 MgCl2, 20 HEPES and 2.5 probenecid respectively (pH adjusted to 7.4 with KOH, with an osmolarity of 320–324 mOsm).

Solubility = assay type: physicochemical
[1] = Table S2, read-out: hNCX1-HEK IC50

Chain of hERG (Q12809 whole entry): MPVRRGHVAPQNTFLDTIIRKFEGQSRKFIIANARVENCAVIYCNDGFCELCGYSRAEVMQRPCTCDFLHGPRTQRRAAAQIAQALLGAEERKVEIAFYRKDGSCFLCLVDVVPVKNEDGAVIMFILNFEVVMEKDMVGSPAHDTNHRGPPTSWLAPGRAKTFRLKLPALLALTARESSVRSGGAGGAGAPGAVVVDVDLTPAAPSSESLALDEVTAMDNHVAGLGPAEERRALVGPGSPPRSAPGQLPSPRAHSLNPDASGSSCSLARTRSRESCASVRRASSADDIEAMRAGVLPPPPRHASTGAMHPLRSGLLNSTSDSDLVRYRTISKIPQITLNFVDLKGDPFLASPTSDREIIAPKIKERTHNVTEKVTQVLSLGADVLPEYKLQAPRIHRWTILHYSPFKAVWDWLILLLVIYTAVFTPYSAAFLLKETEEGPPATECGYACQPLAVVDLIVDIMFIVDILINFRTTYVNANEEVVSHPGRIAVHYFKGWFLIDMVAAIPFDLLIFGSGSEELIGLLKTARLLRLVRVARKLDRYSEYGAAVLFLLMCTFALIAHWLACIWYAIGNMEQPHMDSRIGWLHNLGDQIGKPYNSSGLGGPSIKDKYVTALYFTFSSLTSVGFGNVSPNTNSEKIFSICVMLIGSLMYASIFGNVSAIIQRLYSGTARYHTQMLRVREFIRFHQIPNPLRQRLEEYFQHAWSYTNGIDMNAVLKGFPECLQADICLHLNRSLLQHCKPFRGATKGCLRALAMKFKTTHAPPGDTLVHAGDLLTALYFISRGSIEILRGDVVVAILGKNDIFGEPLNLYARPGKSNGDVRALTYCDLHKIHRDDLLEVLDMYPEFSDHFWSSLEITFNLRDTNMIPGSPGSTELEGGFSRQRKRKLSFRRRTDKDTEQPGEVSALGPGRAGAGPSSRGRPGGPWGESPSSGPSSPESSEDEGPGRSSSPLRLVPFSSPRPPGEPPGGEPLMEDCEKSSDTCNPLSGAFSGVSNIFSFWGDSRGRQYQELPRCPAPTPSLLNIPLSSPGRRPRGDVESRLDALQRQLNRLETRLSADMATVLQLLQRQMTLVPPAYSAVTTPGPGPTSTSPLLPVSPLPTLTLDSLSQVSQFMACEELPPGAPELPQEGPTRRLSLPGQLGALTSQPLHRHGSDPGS

Structure (SMILES) | IC50 (hERG) [nM] | MAO B inhibition (MAO B; 10 μM) [%] | IC50 (hNCX1; [1]) [nM] | IC50 (L‐type calcium channel) [nM] | Solubility class (Solubility; pH 7.4 phosphate buffer) | inhibition at 10 µM (MAO B; 10 μM) [%] | IC50 (hNCX1; 0.3% DMSO, read-out: IC50 hNCX1 calcium efflux signal) [nM] | IC50 (hNCX1; 1% DMSO, read-out: IC50 hNCX1 calcium efflux signal) [nM] | solubility (Solubility; 5% glucose solution, saline or isotonic, 5% glucose used for in vivo dosing, read-out: Solubility in 5% glucose solution) [µg/mL] | solubility (Solubility; phosphate buffer, pH 7.4, aqueous buffer, pH 7.4 phosphate buffer, read-out: Solubility) [µg/mL] | solubility (Solubility; phosphate buffer, pH 7.4, aqueous buffer, pH 7.4 phosphate buffer, read-out: Solubility class) [µg/mL] | solubility (Solubility; saline, saline or isotonic, saline used for in vivo dosing, read-out: Solubility in saline) [µg/mL] | IC50 (MAO B) [nM] | solubility (Solubility; pH 7.4 phosphate buffer) | Solubility class (Solubility; pH 7.4 phosphate buffer, listed as SEA 0400)
O=C(CN1CCC(O)CC1)Nc1ccc(Oc2ccc3c(c2)CCC(c2ccccc2)O3)nc1 (stereo not drawn) [ORM-10962] | 3400 | 52 | 630 | 11400 | Moderate (moderate solubility between 10-100 µg/ml) |  |  |  |  |  |  |  |  |  | 
Nc1cccc(-c2ccc(CNc3ccc(F)cc3)o2)c1 [ORM‐11372] | 10600 |  |  | 6100 |  | 77 | 142 | 164 | 5400 (≈ 19.1 mM) | 10 to 100 (≈ 0.0354 to 0.354 mM) | 10 to 100 (≈ 0.0354 to 0.354 mM) | 5300 (≈ 18.8 mM) |  |  | 
CCOc1ccc(Oc2ccc(OCc3cc(F)ccc3F)cc2)c(N)c1 [SEA0400, reference compound] | 2800 |  | 2210 | 3400 | insoluble |  |  |  |  |  |  |  | 176 | less than 10 μg·ml^−1 | Insoluble (insoluble less than 10 µg/ml)
